Measurements as given in PMC6270171, “In Vitro and In Vivo Antiangiogenic Activity of Caged Polyprenylated Xanthones Isolated from Garcinia hanburyi Hook. f” (Molecules, 2013).
pIC50: −log10 of the molar value. “And” between values parts separate entries of the source, which are not always exact repeats. Equal entries are not always repeated. Where two headings read alike, the source gives them in different places.

Experiments:
[1] = system: HCT-116; experiment: MTT cytotoxicity assay, HCT-116; assay type: cell-based; settings: Homo sapiens
Experimental: (§1) The xanthones 1–11 were tested for cytotoxicity against HeLa, A549, HCT-116, and HepG-2 human cancer cell lines and inhibition on the proliferation of the HUVEC cell line by using the MTT assay according to the described protocols.

[2] = system: HepG-2; experiment: MTT cytotoxicity assay, HepG-2; assay type: cell-based; settings: Homo sapiens
Experimental: as §1

[3] = system: HUVEC; experiment: HUVEC wound migration assay; assay type: cell-based, human; settings: 0.5 μM, 24 h
Experimental: The wound migration assay was performed as previously described. HUVECs were seeded at a plating density of 2 × 10^5 per well in 6-well plates which had been coated with 1% gelatin, cells grown in DMEM medium with 10% FBS overnight. After reaching 100% confluence, the cells were then gently scraped with a plastic tip to produce a wound area. After wounding cells were incubated with fresh DMEM medium with xanthones 1, 3, 7 and 9 at a concentration of 0.5 μM, the migration and cell movement throughout the wound area was examined after 24 h.

[4] = system: zebrafish embryos; experiment: Death rates of treated zebrafish embryos; assay type: in vivo, zebrafish (Danio rerio); settings: for Death Rate: eight embryos per well, control 0; for Concentration that caused the death of all zebrafish embryos: highest concentration tested
Experimental: (§2) A transgenic zebrafish line, Tg(flk1:EGFP), with the endothelial- specific flk1 promoter directing enhanced green fluorescent protein (EGFP) expression in all endothelial cells of the vasculature was used. Adult zebrafish were maintained at 28.5 °C in a recirculating aquaculture system. Zebrafish embryos were generated by natural pair-wise mating, collected in the morning and raised at 28.5 °C in embryo water (0.2 g/L of Instant Ocean Salt in distilled water). At 6 h post-fertilization (hpf), the embryos were sorted for viability and developmental stage (shield stage). The embryos were firstly placed in 24-well plates in 1 mL of embryo water with eight embryos per well. Then, the xanthones, at various concentrations, were added to embryo water of each well from the shield stage (about 6 h). Because the fish embryo receives nourishment from an attached yolk ball for the duration of the experiment, no additional maintenance was required during the duration of the experiments. After treatment with the drugs for 24 h, the embryos were anesthetized with 0.05% 2-phenoxyethanol in embryo water. One to three embryos were placed on carry sheet glass and each embryo was examined for the presence of ectopic vessels in the subintestinal vessel plexus (SIV) as an indication of antiangiogenic effect. Photographs were taken under a fluorescence microscope.

[5] = system: A549; experiment: MTT cytotoxicity assay, A549; assay type: cell-based; settings: Homo sapiens
Experimental: as §1

[6] = system: zebrafish embryos Tg(flk1:EGFP); experiment: Antiangiogenic activity assay on blood vessel formation in zebrafish embryos; assay type: in vivo, zebrafish (Danio rerio); settings: for Antiangiogenic activity to zebrafish embryos: concentrations varying from 1 μM to 16 μM; for Concentration with inhibitory effect on ISV formation (Figure 2): zebrafish embryos, 24 h, effects of 3, 7, 9 comparable to GA
Experimental: as §2

[7] = system: HeLa; experiment: MTT cytotoxicity assay, HeLa; assay type: cell-based; settings: Homo sapiens, read-out: IC50 HeLa
Experimental: as §1

[8] = system: HUVEC cell line; experiment: MTT assay, inhibition of proliferation of HUVEC cell line; assay type: cell-based; settings: Homo sapiens, read-out: IC50 HUVEC
Experimental: as §1

[9] = system: zebrafish embryos; experiment: Heart rates of treated zebrafish embryos; assay type: in vivo, zebrafish (Danio rerio)
[10] = HCT-116, MTT assay, 50% inhibition of cell growth, read-out: IC50 HCT-116
[11] = HepG2, MTT assay, 50% inhibition of cell growth, read-out: IC50 HepG-2
[12] = A549, MTT assay, 50% inhibition of cell growth, read-out: IC50 A549
[13] = MTT assay, 50% inhibition of cell growth
[14] = Tg(flk1:EGFP), zebrafish, in vivo, 24 h, 2 μM
[15] = Tg(flk1:EGFP), zebrafish, in vivo, 24 h, 4 μM
[16] = 1 μM, zebrafish embryos, control 21 per 10 s
[17] = 2 μM, zebrafish embryos, control 21 per 10 s
[18] = 4 μM, zebrafish embryos, control 21 per 10 s
[19] = HCT-116, read-out: IC50 HCT-116
[20] = 8 μM, zebrafish embryos, control 21 per 10 s
[21] = Tg(flk1:EGFP), zebrafish, in vivo, 24 h, 8 μM
[22] = Tg(flk1:EGFP), zebrafish, in vivo, 24 h, 16 μM
[23] = Tg(flk1:EGFP), zebrafish, in vivo, 24 h, 32 μM

Compound	pIC50 [1, 10]	pIC50 [2, 11]	Inhibition of the migration of HUVEC [3]	Death Rate ([4]; 1 μM)	Death Rate ([4]; 2 μM)	Death Rate ([4]; 4 μM)	pIC50 [5, 12]	Antiangiogenic activity to zebrafish embryos [6]	Concentration with inhibitory effect on ISV formation (Figure 2) [6]	pIC50 [7, 13]	pIC50 [8, 13]	Heart Rate [9, 14] [per 10 s]	Heart Rate [9, 15] [per 10 s]	Heart Rate [9, 17] [per 10 s]	Heart Rate [9, 18] [per 10 s]	Death Rate ([4]; 8 μM)	Heart Rate [9, 20] [per 10 s]	Heart Rate [9, 21] [per 10 s]	also measured
CC(C)=CCC[C@]1(C)C=Cc2c(O)c3c(c(CC=C(C)C)c2O1)O[C@]12C(=C[C@@H]4C[C@H]1C(C)(C)O[C@@]2(C/C=C(/C)C(=O)O)C4=O)C3=O [Xanthone 1, gambogic acid]	6.19	6.11	remarkable inhibition	0	1/8	8/8	5.81	displayed antiangiogenic activity	1 µM and 2 µM	5.80	6.14	3	0						Concentration that caused the death of all zebrafish embryos [4]: 4 µM; Heart Rate ([9]; Tg(flk1:EGFP), zebrafish, in vivo, 24 h, 1 μM): 8 per 10 s
CC(C)=CCC/C(C)=C/Cc1c(O)c(CC=C(C)C)c2c(c1O)C(=O)C1=C[C@@H]3C[C@H]4C(C)(C)O[C@@](C/C=C(/C)C(=O)O)(C3=O)[C@@]14O2 [Xanthone 2, gambogenic acid]	5.32	5.20		0	0	8/8	5.32			4.94	5.39			18	0				Heart Rate [9, 16]: 21 per 10 s
CC(C)=CCc1c2c(c(O)c3c1O[C@]14C(=C[C@@H]5C[C@H]1C(C)(C)O[C@@]4(C/C=C(/C)C(=O)O)C5=O)C3=O)C=CC(C)(C)O2 [Xanthone 3, morellic acid]			remarkable inhibition		0	0		displayed antiangiogenic activity	4 µM					8	6	8/8	0		pIC50 [1, 19]: 5.05; pIC50 ([2]; HepG2, read-out: IC50 HepG-2): 4.87; Concentration that caused the death of all zebrafish embryos [4]: 8 µM; pIC50 ([5]; A549, read-out: IC50 A549): 4.85; pIC50 [7]: 4.86; pIC50 [8]: 5.21
CC(C)=CCC/C(C)=C/Cc1c(O)c2c(c3c1O[C@@H](C(C)(C)O)C3)O[C@]13C(=C[C@@H]4C[C@H]1C(C)(C)O[C@@]3(C/C=C(/C)C(=O)O)C4=O)C2=O [Xanthone 4, gambogenific acid]	5.35	4.99			0	0	4.95			5.12	5.61	21	17			0		13	
CC(C)=CCc1c2c(c(O)c3c1O[C@]14C(=C[C@@H]5C[C@H]1C(C)(C)O[C@@]4(C/C=C(/C)C=O)C5=O)C3=O)C=CC(C)(C)O2 [Xanthone 5, morellin isomers]	5.56	5.22			0	0	5.19			5.27	5.62	13	10			8/8		8	
CC(C)=CCC/C(C)=C/Cc1c(O)c(CC=C(C)C)c2c(c1O)C(=O)C1=C[C@@H]3C[C@H]4C(C)(C)O[C@@](C/C=C(\C)C=O)(C3=O)[C@@]14O2 [Xanthone 6, isogambogenin]	5.83	5.61					5.31			5.39	5.67					0		17	Death Rate ([4]; 16 μM): 1/8; Death Rate ([4]; 32 μM): 4/8; Heart Rate [9, 22]: 14 per 10 s; Heart Rate [9, 23]: 8 per 10 s
CC(C)=CCC/C(C)=C/Cc1c(O)c(CC=C(C)C)c2c(c1O)C(=O)C1=C[C@@H]3C[C@H]4C(C)(C)O[C@@](C/C=C(/C)C=O)(C3=O)[C@@]14O2 [Xanthone 7, gambogenin]	5.89	5.19	remarkable inhibition				5.31	displayed antiangiogenic activity	32 µM	5.49	5.98					0		6	Heart Rate [9, 22]: 6 per 10 s; Heart Rate [9, 23]: 5 per 10 s
CC(C)=CCCC1(C)C=Cc2c(O)c3c(c(CC=C(C)C)c2O1)O[C@]12C(=C[C@@H]4C[C@H]1C(C)(C)O[C@@]2(C/C=C(\C)C(=O)O)C4=O)C3=O (stereo partly drawn) [Xanthone 8, isogambogic acid]	5.80	5.20			0	1/8	5.54			5.32	6.04	17	13			6/8		6	
CC(C)=CCC/C(C)=C/Cc1c(O)c(CC=C(C)C)c2c(c1O)C(=O)C1=C[C@@H]3C[C@H]4C(C)(C)O[C@@](C/C=C(\C)C(=O)O)(C3=O)[C@@]14O2 [Xanthone 9, isogambogenic acid]	4.93	5.20	remarkable inhibition		0	0	4.90	displayed antiangiogenic activity	4 µM	5.20	5.76			8	5	8/8	0		Concentration that caused the death of all zebrafish embryos [4]: 8 µM
CC(C)=CCc1c2c(c(O)c3c1O[C@]14C(=C[C@@H]5C[C@H]1C(C)(C)O[C@@]4(CC=C(C)C)C5=O)C3=O)C=CC(C)(C)O2 [Xanthone 10, desoxymorellin]				0	0	0								17	16	0	16		pIC50 [1, 19]: 5.92; pIC50 ([2]; HepG2, read-out: IC50 HepG-2): 6.00; pIC50 ([5]; A549, read-out: IC50 A549): 5.69; pIC50 [7]: 5.59; pIC50 [8]: 6.05; Heart Rate [9, 16]: 20 per 10 s
CC(C)=CCC/C(C)=C/Cc1c(O)c(CC=C(C)C)c2c(c1O)C(=O)C1=C[C@@H]3C[C@H]4C(C)(C)O[C@@](CC=C(C)C)(C3=O)[C@@]14O2 [Xanthone 11, desoxygambogenin]				0	0	0								21	21	0	20		pIC50 [1, 19]: 5.87; pIC50 ([2]; HepG2, read-out: IC50 HepG-2): 5.94; pIC50 ([5]; A549, read-out: IC50 A549): 5.74; pIC50 [7]: 5.53; pIC50 [8]: 5.80; Heart Rate [9, 16]: 21 per 10 s
